Measured values taken from patent US20030134859A1 (SANKYO COMPANY, LIMITED, priority 2000, published 2003).

What follows are molecules tested on Mouse preadipocyte strain 3T3-L1 (assay: Inhibition of differentiation as an indication of acetic acid uptake). Conditions: 0.1 μM test substance, control (0.01% dimethylsulfoxide) = 100%.
Type: cell-based
Outline: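 Differentiation is indexed by 1 hr [2-14C]acetic acid incorporation, measured by scintillation counting and given as uptake relative to 0.01% DMSO control (100%). Mouse 3T3-L1 preadipocytes, pre-grown 10 days, received 0.1 μM test substance throughout a 4-day insulin/IBMX/dexamethasone induction, followed by 2 days' maintenance culture.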

Row | Structure (SMILES) | Rate of Uptake (%) of [2-14C] acetic acid
1 | O=C(Nc1ccc(-c2ccccn2)cc1)c1cc([N+](=O)[O-])ccc1Cl [Example 8, N-[4-(2-Pyridyl)phenyl]-(2-chloro-5-nitrophenyl)carboxamide] | 47.2%

Same assay, conditions: Mus musculus, 3T3-L1, 0.1 μM test substance, control (0.01% dimethylsulfoxide) = 100%, read-out: Rate of Uptake (%) of [2-14C] acetic acid

Row | Structure (SMILES) | activity at 0.1 µM
2 | Cc1ccc(NC(=O)c2cc([N+](=O)[O-])ccc2Cl)cc1 [Example 1, N-(4-Methylphenyl)-(2-chloro-5-nitrophenyl)carboxamide] | 64%
3 | O=C(Nc1ccc(-c2ccccc2)cc1)c1cc([N+](=O)[O-])ccc1Cl [Example 2, N-(4-Phenylphenyl)-(2-chloro-5-nitrophenyl)carboxamide] | 42.7%
4 | Cc1cnc(NC(=O)c2cc([N+](=O)[O-])ccc2Cl)s1 [Example 4, N-(5-Methylthiazol-2-yl)-(2-chloro-5-nitrophenyl)carboxamide] | 92.5%
5 | O=C(Nc1cccc(-c2ccccc2)c1)c1cc([N+](=O)[O-])ccc1Cl [Example 5, N-(3-Phenylphenyl)-(2-chloro-5-nitrophenyl)carboxamide] | 43.4%
6 | COc1ccc(NC(=O)c2cc([N+](=O)[O-])ccc2Cl)cc1-c1ccccc1 [Example 6, N-(4-Methoxy-3-phenyl)phenyl-(2-chloro-5-nitrophenyl)carboxamide] | 55.8%
7 | O=C(Nc1ccccc1-c1ccccc1)c1cc([N+](=O)[O-])ccc1Cl [Example 7, N-(2-Phenylphenyl)-(2-chloro-5-nitrophenyl)carboxamide] | 65%
8 | Cc1ccc2nc(-c3ccc(NC(=O)c4cc([N+](=O)[O-])ccc4Cl)cc3)sc2c1 [Example 10, N-[4-(6-Methylbenzothiazol-2-yl)phenyl]-(2-chloro-5-nitrophenyl)carboxamide] | 85.3%
9 | CCCCCc1ccc(NC(=O)c2cc([N+](=O)[O-])ccc2Cl)cc1 [Example 16, N-(4-Pentylphenyl)-(2-chloro-5-nitrophenyl)carboxamide] | 83.7%
10 | N#Cc1ccc(NC(=O)c2cc([N+](=O)[O-])ccc2Cl)cc1 [Example 20, N-(4-Cyanophenyl)-(2-chloro-5-nitrophenyl)carboxamide] | 65.9%
11 | CCOC(=O)c1ccc(NC(=O)c2cc([N+](=O)[O-])ccc2Cl)cc1 [Example 26, N-(4-Ethoxycarbonylphenyl)-(2-chloro-5-nitrophenyl)carboxamide] | 87.5%
12 | CC(C)(C)c1cc(NC(=O)c2cc([N+](=O)[O-])ccc2Cl)cc(C(C)(C)C)c1O [Example 29, N-(3,5-Di-t-butyl-4-hydroxyphenyl)-(2-chloro-5-nitrophenyl)carboxamide] | 68.6%
13 | O=C(Nc1cccc(NS(=O)(=O)c2ccccc2)c1)c1cc([N+](=O)[O-])ccc1Cl [Example 30, N-(3-Benzensulfonylaminophenyl)-(2-chloro-5-nitrophenyl)carboxamide] | 60.1%
14 | O=C(Nc1nc(-c2ccccc2)cs1)c1cc([N+](=O)[O-])ccc1Cl [Example 35, N-(4-Phenylthiazol-2-yl)-(2-chloro-5-nitrophenyl)carboxamide] | 71.5%
15 | O=C(Nc1nc(-c2cccnc2)cs1)c1cc([N+](=O)[O-])ccc1Cl [Example 37, N-[4-(3-Pyridyl)thiazol-2-yl)-(2-chloro-5-nitrophenyl)carboxamide] | 38.6%
16 | O=C(Nc1nc(-c2ccccn2)cs1)c1cc([N+](=O)[O-])ccc1Cl [Example 38, N-[4-(2-Pyridyl)thiazol-2-yl)-(2-chloro-5-nitrophenyl)carboxamide] | 82%
17 | Cc1ccccc1-c1csc(NC(=O)c2cc([N+](=O)[O-])ccc2Cl)n1 [Example 39, N-[4-(2-Methylphenyl)thiazol-2-yl]-(2-chloro-5-nitrophenyl)carboxamide] | 62.5%
18 | Cc1cccc(-c2csc(NC(=O)c3cc([N+](=O)[O-])ccc3Cl)n2)c1 [Example 40, N-[4-(3-Methylphenyl)thiazol-2-yl)-(2-chloro-5-nitrophenyl)carboxamide] | 45.3%
